Measured values reported in US20260234147A1 (priority 2023, published 2026).
Where two headings read alike, the source gives them in different places.

Assays:
[1] = molecular target: hDOR (Homo sapiens, UniProt P41143); assay: Radioligand binding assay (Eurofins Cerep), [3H]DADLE displacement
[2] = molecular target: T1, hMOR (Homo sapiens, UniProt P35372); assay: cell-based; set-up: expressed in transfected cells; conditions: CHO
[3] = molecular target: T2, α2C adrenergic receptor (Homo sapiens, UniProt P18825); assay: Radioligand binding assay (Eurofins Cerep), [3H]RX 821002 displacement
T2 construct: Eurofins Cerep (contract screening)
T2 sequence (P18825 1-462): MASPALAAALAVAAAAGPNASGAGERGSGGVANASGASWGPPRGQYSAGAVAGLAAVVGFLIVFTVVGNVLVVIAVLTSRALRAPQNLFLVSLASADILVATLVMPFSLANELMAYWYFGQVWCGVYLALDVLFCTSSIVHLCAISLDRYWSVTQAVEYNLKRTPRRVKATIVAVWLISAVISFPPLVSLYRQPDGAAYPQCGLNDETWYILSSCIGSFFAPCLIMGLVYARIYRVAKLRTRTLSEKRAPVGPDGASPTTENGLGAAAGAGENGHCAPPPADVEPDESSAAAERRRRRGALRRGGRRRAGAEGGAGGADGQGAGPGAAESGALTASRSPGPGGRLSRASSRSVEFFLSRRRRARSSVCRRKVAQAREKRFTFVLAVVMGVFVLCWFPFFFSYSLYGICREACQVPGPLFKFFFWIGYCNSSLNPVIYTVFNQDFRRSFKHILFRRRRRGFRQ

[4] = molecular target: hKOR (Homo sapiens, UniProt P41145); assay: Radioligand binding assay (Eurofins Cerep), [3H]U69,593 displacement
Sequence of hKOR (P41145 whole entry): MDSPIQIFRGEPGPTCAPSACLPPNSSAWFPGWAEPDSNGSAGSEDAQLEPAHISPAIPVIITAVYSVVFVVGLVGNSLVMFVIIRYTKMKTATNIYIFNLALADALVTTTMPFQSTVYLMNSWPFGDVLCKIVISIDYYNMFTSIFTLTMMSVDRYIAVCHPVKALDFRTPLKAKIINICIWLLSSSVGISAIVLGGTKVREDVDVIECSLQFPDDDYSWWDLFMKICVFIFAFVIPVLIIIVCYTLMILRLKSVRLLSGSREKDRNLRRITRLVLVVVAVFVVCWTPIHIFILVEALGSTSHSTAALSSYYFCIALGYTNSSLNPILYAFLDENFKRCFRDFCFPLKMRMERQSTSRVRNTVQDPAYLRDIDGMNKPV

[5] = molecular target: T3, α2A adrenergic receptor (Homo sapiens, UniProt P08913); assay: Radioligand binding assay (Eurofins Cerep), [3H]RX 821002 displacement
T3 construct: Eurofins Cerep (contract screening)
T3 sequence (P08913 1-465): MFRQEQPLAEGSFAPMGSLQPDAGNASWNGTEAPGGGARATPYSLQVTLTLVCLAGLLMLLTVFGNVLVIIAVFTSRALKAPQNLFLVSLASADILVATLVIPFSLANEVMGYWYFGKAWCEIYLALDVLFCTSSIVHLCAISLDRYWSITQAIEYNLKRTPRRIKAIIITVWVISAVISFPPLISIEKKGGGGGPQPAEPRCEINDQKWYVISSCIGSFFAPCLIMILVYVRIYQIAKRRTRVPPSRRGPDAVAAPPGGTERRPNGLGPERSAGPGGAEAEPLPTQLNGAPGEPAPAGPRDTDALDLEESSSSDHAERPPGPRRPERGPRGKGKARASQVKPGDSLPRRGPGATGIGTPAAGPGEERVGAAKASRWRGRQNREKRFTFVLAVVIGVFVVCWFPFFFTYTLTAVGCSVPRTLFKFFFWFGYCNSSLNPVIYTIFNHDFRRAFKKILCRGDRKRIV

[6] = molecular target: T1, hMOR; assay: Radioligand binding assay (Eurofins Cerep), [3H]DAMGO displacement
[7] = Metabolic stability in rat liver microsomes; format: in vitro ADME; conditions: in vitro intrinsic clearance in RLM scaled to whole organ (rat)
Experimental: In vitro metabolic stability of each compound was determined using rat liver microsomes in triplicate. Verapamil was used as a positive control to check the activity of the microsomes. The incubation mixtures consisted of rat liver microsomes (1 mg microsomal protein/ml), substrate (1 μM), and reduced NADPH (1 mM) in a total volume of 0.4 ml potassium phosphate buffer (50 mM, pH 7.4). Reactions were initiated with the addition of NADPH and kept in an incubator shaker at 37° C. Aliquots of 25 μl were withdrawn at 0, 5, 10, 15, 30, and 60 min and mixed with 125 μl of acetonitrile with formic acid (0.1% v/v) containing phenacetin (50 ng/ml; internal standard) for the termination of the reaction. The samples were then vortex mixed and filtered through a […] 96-well membrane filtration plate under centrifugation at speed of 2000×g for 5 min at 4° C. The filtrates were subjected to UPLC-mass spectrometry (MS/MS) analysis.
The intrinsic clearance of the compounds was calculated using a half-life employing the ‘substrate depletion’ approach. The apparent half-life was calculated from the pseudo-first-order rate constants obtained by linear regression of log (concentration) and time plots. The in vitro intrinsic clearance of IFN was estimated using the formula: […]
Where k is the slope of the line obtained by plotting the natural logarithmic of the percentage of parent remaining versus time and V is the volume of incubation.
The in vitro intrinsic clearance was scaled to whole-organ (hepatic) in vivo intrinsic CL (CLint,H) using the scaling factors available in the literature using equation (Mahmood I. Application of allometric principles for the prediction of pharmacokinetics in human and veterinary drug development. Advanced drug delivery reviews, 2007, 59(11), 1177-1192)
MPPGL represents the microsomal protein per gram of Sprague Dawley rat liver (45 mg/g) and liver weight per kg body weight was 40 g/kg.

[8] = molecular target: T1, hMOR; assay: Cyclic adenosine 3′,5′-monophosphate (cAMP) assay in hMOR-CHO cells; format: cell-based; conditions: N=1, control agonist DAMGO
[9] = Table 3-1, 3 independent experiments, read-out: Ki (nM ± SEM) DOR
[10] = Table B1′, read-out: DOR Ki ± SEM
[11] = Ki (nM ± SEM) a2C-AR, Table 3-1, 3 independent experiments
[12] = Table 3-1, 3 independent experiments, read-out: Ki (nM ± SEM) KOR
[13] = Table B1′, read-out: KOR Ki ± SEM
[14] = Table 3-1, 3 independent experiments, read-out: Ki (nM ± SEM) a2A-AR
[15] = Table B1′, read-out: alpha2A Ki ± SEM
[16] = Table A1, data summary #1, read-out: KOR Ki ± SEM
[17] = Table A4, data summary #2, read-out: KOR Ki ± SEM

Sequence of hDOR (P41143 whole entry): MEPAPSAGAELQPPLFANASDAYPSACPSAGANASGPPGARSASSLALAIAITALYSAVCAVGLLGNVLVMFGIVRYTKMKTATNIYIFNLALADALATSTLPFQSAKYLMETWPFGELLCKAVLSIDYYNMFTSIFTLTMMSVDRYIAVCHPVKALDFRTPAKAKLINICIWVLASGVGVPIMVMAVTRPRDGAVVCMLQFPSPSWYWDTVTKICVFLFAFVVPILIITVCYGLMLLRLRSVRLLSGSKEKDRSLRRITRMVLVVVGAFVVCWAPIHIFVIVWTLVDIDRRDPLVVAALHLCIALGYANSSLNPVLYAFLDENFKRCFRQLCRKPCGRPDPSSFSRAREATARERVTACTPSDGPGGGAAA
T1 sequence (P35372 whole entry): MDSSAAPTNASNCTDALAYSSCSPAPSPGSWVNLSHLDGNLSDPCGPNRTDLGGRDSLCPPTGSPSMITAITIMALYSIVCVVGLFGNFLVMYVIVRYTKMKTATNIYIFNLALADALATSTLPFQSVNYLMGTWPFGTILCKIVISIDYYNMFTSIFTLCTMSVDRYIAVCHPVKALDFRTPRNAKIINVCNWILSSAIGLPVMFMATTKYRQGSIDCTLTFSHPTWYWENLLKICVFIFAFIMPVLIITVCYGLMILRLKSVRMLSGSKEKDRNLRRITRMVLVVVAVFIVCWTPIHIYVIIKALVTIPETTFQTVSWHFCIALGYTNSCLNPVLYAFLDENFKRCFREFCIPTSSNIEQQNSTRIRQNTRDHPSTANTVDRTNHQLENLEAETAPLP

Compound	Ki [1, 9]	Ki [1, 10]	Emax ([2]; read-out: MOR Emax ± SEM (%))	Ki [3, 11]	Ki [4, 12]	Ki [4, 13]	Ki [5, 14]	Ki [5, 15]	Ki [4, 16]	Ki [4, 17]	other results
CC[C@@H]1CN2CCc3c([nH]c4ccccc34)[C@@H]2C[C@@H]1/C(=C\OC)C(=O)OC [Corynantheidine, reference compound]	2790 ± 171 nM	2410 ± 1200 nM	8.32 ± 3.4%	135 ± 12.5 nM	4060 ± 969 nM	1030 ± 162 nM	351 ± 58.7 nM	68 ± 12 nM			SR: Selectivity Ratio (KiMOR/Kiα2A) ([6]; Table 3-1): 0.97; Ki ([6]; Table 3-7, human MOR, read-out: MOR Ki (nM ± SEM)): 450 ± 100 nM; Ki ([6]; Table B1′, read-out: MOR Ki ± SEM): 2520 ± 372 nM
CC[C@@H]1CN2CCc3c([nH]c4cccc(OC)c34)[C@@H]2C[C@@H]1/C(=C\OC)C(=O)OC [Mitragynine, mitragynine, reference compound]	6800 ± 721 nM	6800 ± 721 nM	3.97 ± 9.5%	4040 ± 417 nM	1530 ± 485 nM	1530 ± 143 nM	4090 ± 273 nM	4090 ± 273 nM	1530 nM	264 nM	Ki ([1]; Table A1, data summary #1, read-out: DOR Ki ± SEM): 6800 nM; Ki ([1]; Table A4, data summary #2, read-out: DOR Ki ± SEM): 1950 nM; Whole liver clearance, CL int, H [7]: 2.13 L/h/kg; Emax ([2]; read-out: MOR Emax ± SEM (% DAMGO), Table A1, data summary #1): 3.97%; Ki ([3]; Alpha2C Ki ± SEM (nM), Table A1, data summary #1): 4040 nM; Ki ([3]; Alpha2C Ki ± SEM (nM), Table B2, mean ± SEM, 3 independent experiments): 4090 ± 372 nM; Ki ([5]; Table A1, data summary #1, read-out: Alpha2A Ki ± SEM): 4090 nM; Ki ([5]; Table A4, data summary #2, read-out: Alpha2A Ki ± SEM): 1350 nM; Ki ([5]; Table B1, mean ± SEM, 3 independent experiments, read-out: Alpha2A Ki ± SEM): 709 ± 91.2 nM; Ki ([5]; Table B2, mean ± SEM, 3 independent experiments, read-out: Alpha2A Ki ± SEM): 709 ± 91.2 nM
CC[C@@H]1CN2CCc3c([nH]c4cccc(OC)c34)[C@@H]2C[C@@H]1/C(=C\OC)C(=O)Nc1ccccc1 [SUSM-528, (E)-2-((2S,3S,12bS)-3-ethyl-8-methoxy-1,2,3,4,6,7,12,12b-octahydroindolo[2,3-a]quinolizin-2-yl)-3-methoxy-N-phenylacrylamide]									> 10000 nM	6510 ± 4660 nM	Ki ([1]; DOR Ki ± SEM (nM), Table A4, data summary #2): > 10000 nM; functional activity in cAMP assay [8]: agonist, however its potency was less than DAMGO; functional activity in cAMP assay ([8]; listed as SUSM 528): agonist, but less potent than DAMGO; Ki ([5]; Alpha2A Ki ± SEM (nM), Table A1, data summary #1): 6580 ± 2320 nM; Ki ([5]; Alpha2A Ki ± SEM (nM), Table A4, data summary #2): 6580 ± 2320 nM; Ki ([6]; Table A1, data summary #1, read-out: MOR Ki ± SEM): 7770 ± 3620 nM; Ki ([6]; Table A4, data summary #2, read-out: MOR Ki ± SEM): 498 ± 118 nM
